Laboratory results from patent publication US20260200890A1, “ADAR1 INHIBITORS AND METHODS OF USING THE SAME” (AVAMMUNE THERAPEUTICS INC., priority 2022, published 2026).

Assays:
ADAR1 = biological target: T1, ADAR1 (Homo sapiens, UniProt P55265); assay: ADAR1 Inhibition Assay (IFN fold-induction, Quanti-Luc luminescence, p110 KO A549 dual cells); format: cell-based; settings: IFN fold-induction vs DMSO, 24 and 48 h
T1 construct: endogenous in cells; host or cells: p110 KO A549 dual cells
T1 sequence (P55265 1-1226): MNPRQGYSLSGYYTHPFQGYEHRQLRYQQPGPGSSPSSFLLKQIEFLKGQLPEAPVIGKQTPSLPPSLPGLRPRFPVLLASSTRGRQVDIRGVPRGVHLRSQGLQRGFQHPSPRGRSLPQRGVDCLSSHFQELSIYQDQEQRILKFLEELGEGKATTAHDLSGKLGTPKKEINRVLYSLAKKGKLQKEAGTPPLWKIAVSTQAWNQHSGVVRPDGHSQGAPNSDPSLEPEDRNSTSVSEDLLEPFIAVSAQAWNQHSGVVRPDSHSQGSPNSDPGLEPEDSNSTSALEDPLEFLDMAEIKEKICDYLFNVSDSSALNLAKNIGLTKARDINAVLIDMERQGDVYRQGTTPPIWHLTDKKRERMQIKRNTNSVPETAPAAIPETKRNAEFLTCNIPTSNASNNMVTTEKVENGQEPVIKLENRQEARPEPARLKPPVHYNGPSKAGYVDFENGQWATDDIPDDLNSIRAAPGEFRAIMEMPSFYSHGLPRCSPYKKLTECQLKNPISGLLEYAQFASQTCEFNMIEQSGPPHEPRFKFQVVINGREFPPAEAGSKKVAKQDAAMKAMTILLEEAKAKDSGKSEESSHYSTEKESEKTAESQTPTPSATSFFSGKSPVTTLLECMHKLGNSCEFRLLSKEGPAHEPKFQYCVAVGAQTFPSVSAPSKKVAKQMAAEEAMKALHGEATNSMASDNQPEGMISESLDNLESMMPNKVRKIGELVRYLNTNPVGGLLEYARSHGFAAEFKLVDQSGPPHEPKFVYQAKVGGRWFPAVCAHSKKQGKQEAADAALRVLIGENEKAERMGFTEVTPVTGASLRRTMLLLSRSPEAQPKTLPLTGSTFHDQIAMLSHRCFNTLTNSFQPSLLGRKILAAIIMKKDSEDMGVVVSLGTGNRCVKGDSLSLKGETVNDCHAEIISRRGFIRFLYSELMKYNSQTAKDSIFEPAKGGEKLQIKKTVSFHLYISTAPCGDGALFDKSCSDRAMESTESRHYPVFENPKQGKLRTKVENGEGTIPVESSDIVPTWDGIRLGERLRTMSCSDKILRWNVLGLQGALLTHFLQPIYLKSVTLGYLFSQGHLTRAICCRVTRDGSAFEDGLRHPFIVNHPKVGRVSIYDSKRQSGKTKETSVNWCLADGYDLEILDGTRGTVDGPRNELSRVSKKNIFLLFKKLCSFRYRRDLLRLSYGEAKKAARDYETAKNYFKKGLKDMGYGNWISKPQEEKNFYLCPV
In short: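 EC50 derived from IFN fold-induction, calculated as sample RLU over average DMSO RLU. Luminescence measured by Quanti-Luc on samples taken after 24 and 48 h of compound exposure (1% DMSO final, 37 °C, 5% CO2). Cells were p110 KO A549 dual, seeded at 20,000 per well in supplemented DMEM.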

Zα domain of ADAR1 p150 = biological target: T2, Zα domain of ADAR1 p150 (Homo sapiens, UniProt P55265); assay: SPR binding assay; settings: 6× his tag Zα domain immobilized on CM5 chip, analyte 0-25 μM
T2 construct: 10 μg/ml of Zα domain of ADAR1 was immobilized on CM5 chip using anti-HIS antibody; made in house
T2 sequence (P55265 133-199 limits assumed): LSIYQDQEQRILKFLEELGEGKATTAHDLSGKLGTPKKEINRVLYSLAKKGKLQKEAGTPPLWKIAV
Procedure: 6× his tag Za domain of ADAR1 p150 was purified using bacterial purification system. Protein was isolated from supernatant of cell lysate using Ni-NTA resin. For binding assay using SPR, 10 μg/ml of Zα domain of ADAR1 was immobilized on CM5 chip using anti-HIS antibody. Binding was quantified using the following condition below: • Analyte: 25, 12.5, 6.25, 3.125, 1.56, 0.78, 0 μM • Contact time—60 seconds, • Dissociation time—320 seconds • Flow rate—30 μL/minute Running buffer-PBSP+5% DMSO • After curve fitting, Kd values for synthesized compounds was quantified using the instrument software.

Structure (SMILES) | EC50 (ADAR1) [µM] | Kd (Zα domain of ADAR1 p150) [µM]
CCOC(=O)c1cc(-c2ccccc2)sc1NC(=O)CC(=O)NCc1cccc(NS(C)(=O)=O)c1 [Compound 369] | > 100 | > 25
CCOC(=O)c1cc(-c2ccccc2)sc1NC(=O)CNC(=O)Cc1cccc(C(F)(F)F)c1 [Compound 326] | > 100 | ≤ 1
CCOC(=O)c1cc(-c2ccccc2)ncc1NC(=O)CNC(=O)Cc1cccc(NS(C)(=O)=O)c1 [Compound 387] | > 100 | ≤ 1
CCOC(=O)c1nc(-c2ccccc2)oc1NC(=O)COC(=O)c1cccc(P(=O)(O)O)c1 [Compound 418] | > 100 | > 10
CCOC(=O)c1cc(-c2ccccc2)sc1NC(=O)Cn1cnc(-c2cccc(NS(C)(=O)=O)c2)n1 [Compound 274] | > 100 | ≤ 1
CCOC(=O)c1cc(-c2ccccc2)sc1NC(=O)COC(=O)C1(c2cccc(NS(C)(=O)=O)c2)CCCC1 [Compound 396] | > 100 | ≤ 1
CCOC(=O)c1cc(-c2ccccc2)sc1-c1cccc(NC(=O)c2cccc(NS(C)(=O)=O)c2)c1 [Compound 293] | > 100 | > 25
CCOC(=O)c1cc(-c2ccccc2)[nH]c1NC(=O)CNC(=O)c1cccc(NS(C)(=O)=O)c1 [Compound 395] | > 100 | > 25
CCOC(=O)c1cc(-c2ccccc2)sc1NC(=O)CNC(=O)c1cccc(NS(C)(=O)=O)c1 [Compound 13] | > 100 | ≤ 1
CCOC(=O)c1cc(-c2ccccc2)[nH]c1NC(=O)COC(=O)c1cccc(P(=O)(O)O)c1 [Compound 355] | > 100 | ≤ 1
CCOC(=O)c1cc(-c2ccc(P(=O)(O)O)cc2)sc1NC(=O)COC(=O)c1cccc(NS(C)(=O)=O)c1 [Compound 388] | > 100 | ≤ 1
CCOC(=O)c1cc(-c2ccccc2)sc1NC(=O)C1CCCCN1C(=O)Cc1cccc(NS(C)(=O)=O)c1 (stereo not shown) [Compound 380] | > 100 | ≤ 1
CCOC(=O)c1cc(-c2ccccc2)sc1NC(=O)[C@@H]1CCN(C(=O)c2cccc(P(=O)(OCC)OCC)c2)C1 [Compound 415] | > 100 | ≤ 1
CCOC(=O)c1cc(-c2ccccc2)sc1NC(=O)[C@H]1CCN(C(=O)c2cccc(P(=O)(OCC)OCC)c2)C1 [Compound 406] | 50 to 100 | ≤ 1
CCOC(=O)c1cc(-c2ccccc2)sc1NC(=O)COC(=O)c1cccc(P(=O)(O)O)c1 [Compound 325] | > 100 | ≤ 1
CCOC(=O)c1cc(-c2ccccc2)sc1NC(=O)CNC(=O)Cc1cccc(OC(F)(F)F)c1 [Compound 328] | > 100 | ≤ 1
CCOC(=O)c1cc(-c2ccccc2)sc1NC(=O)COC(=O)c1cccc(NC(C)=O)c1 [Compound 107] | > 100 | ≤ 1
CCOC(=O)c1cc(-c2ccccc2)sc1NC(=O)Cn1cc(-c2cccc(P(=O)(O)O)c2)nn1 [Compound 386] | > 100 | > 25
CCOC(=O)c1cc(-c2ccccc2)sc1NC(=O)CNC(=O)Cc1ccc(P(=O)(OCC)OCC)cc1 [Compound 402] | 50 to 100 | ≤ 1

Structure (SMILES) | EC50 (ADAR1) [µM] | Kd (Zα domain of ADAR1 p150) [µM]
CCOC(=O)c1cc(-c2ccccc2)sc1-c1coc(CNc2cccc(NS(C)(=O)=O)c2)c1 [Compound 329] | > 100 | 1 to 10
CS(=O)(=O)Nc1cccc(C(=O)OCC(=O)N2CCN(c3ccccc3)C2=O)c1 [Compound 220] | > 100 | ≤ 1
CCOC(=O)c1cc(-c2ccccc2)sc1NC(=O)CNC(=O)c1cccc(S(N)(=O)=O)c1 [Compound 416] | > 100 | ≤ 1
CCNC(=O)c1cc(-c2ccccc2)sc1NC(=O)CN(C)C(=O)Cc1cccc(NS(C)(=O)=O)c1 [Compound 384] | > 100 | 1 to 10
CCOC(=O)c1cc(-c2ccccc2)sc1NC(=O)COC(=O)c1ccc(P(=O)(O)O)cc1 [Compound 424] | > 100 | ≤ 1
CCOC(=O)c1cc(-c2ccccc2)sc1NC(=O)C1CCCN1C(=O)c1cccc(S(N)(=O)=O)c1 (stereo not shown) [Compound 72] | ≤ 25 | 1 to 10
CCOC(=O)c1cc(-c2ccccc2)sc1NC(=O)C1CCN(C(=O)c2cccc(P(=O)(OCC)OCC)c2)C1 (stereo not shown) [Compound 361] | 50 to 100 | > 25
CCOC(=O)c1cc(-c2ccccc2)sc1NC(=O)CCS(=O)(=O)c1cccc(NS(C)(=O)=O)c1 [Compound 321] | > 100 | ≤ 1
CCOC(=O)c1cc(-c2ccccc2)sc1NC(=O)CN1C[C@H]2CC[C@@H](C1)N2S(C)(=O)=O [Compound 364] | > 100 | > 25
CCOC(=O)c1cc(-c2ccccc2)sc1C1=CCN(C(=O)c2cccc(NS(C)(=O)=O)c2)CC1 [Compound 294] | > 100 | ≤ 1
CCOC(=O)c1cc(-c2ccccc2)ncc1NC(=O)COC(=O)c1cccc(NS(C)(=O)=O)c1 [Compound 372] | > 100 | > 25
CCOC(=O)c1cc(-c2ccccc2)sc1NC(=O)CNC(=O)Cc1ccc(P(=O)(O)O)cc1 [Compound 405] | 50 to 100 | ≤ 1
CCOC(=O)c1cc(-c2ccccc2)sc1NC(=O)COC(=O)c1cccc(C#N)c1 [Compound 71] | > 100 | ≤ 1
CCNC(=O)c1cc(-c2ccccc2)sc1NC(=O)CNC(=O)Cc1cccc(NS(C)(=O)=O)c1 [Compound 376] | > 100 | ≤ 1
CCOC(=O)c1cc(-c2ccccc2)sc1NC(=O)Cn1cc(-c2cccc(P(=O)(OCC)OCC)c2)nn1 [Compound 385] | > 100 | ≤ 1
CCOC(=O)c1cc(-c2ccccc2)sc1NC(=O)COC(=O)c1cccc(C(=O)OC)c1 [Compound 359] | > 100 | ≤ 1
CCOC(=O)c1cc(-c2ccc(P(=O)(OCC)OCC)cc2)sc1NC(=O)COC(=O)c1cccc(NS(C)(=O)=O)c1 [Compound 389] | > 100 | > 25
CCOC(=O)c1cc(-c2ccccc2)[nH]c1NC(=O)C1CCN(C(=O)c2cccc(NS(C)(=O)=O)c2)C1 (stereo not shown) [Compound 412] | > 100 | > 25
CCOC(=O)c1cc(-c2ccccc2)sc1NC(=O)CNC(=O)Cc1cccc(OS(N)(=O)=O)c1 [Compound 351] | > 100 | ≤ 1
